Assay results taken from paper PMC11279404, “Discovery of 1H-benzo[d]imidazole-(halogenated)Benzylidenebenzohydrazide Hybrids as Potential Multi-Kinase Inhibitors” (Pharmaceuticals, 2024).

Tests used:
[1] = tested on: HCT-116 (human colon cancer cell line); experiment: MTT in vitro cytotoxicity, HCT-116; assay type: cell-based; details: for IC50: Homo sapiens, HCT-116, MTT, mean ± SD of triplicate; for SI (Selectivity Index) HCT-116: IC50 of WI-38 / IC50 of HCT-116
[2] = tested on: HepG2 (hepatocellular carcinoma cell line); experiment: MTT in vitro cytotoxicity, HepG2; assay type: cell-based, human; details: for IC50: Homo sapiens, HepG2, MTT, mean ± SD of triplicate; for SI (Selectivity Index) HepG2: IC50 of WI-38 / IC50 of HepG2
[3] = tested on: MCF-7 (mammary gland breast cancer cell line); experiment: MTT in vitro cytotoxicity, MCF-7; assay type: cell-based, human; details: for IC50: Homo sapiens, MCF7, MTT, mean ± SD of triplicate; for SI (Selectivity Index) MCF-7: IC50 of WI-38 / IC50 of MCF-7
[4] = MTT in vitro cytotoxicity, normal WI-38; assay type: cell-based; details: human, WI-38 normal lung fibroblast cells, normal cell line, mean ± SD of triplicate
[5] = tested on: cancer cell lines (HCT-116, HepG2, MCF-7); experiment: MTT in vitro cytotoxicity, summary across the cancer cell line panel; assay type: cell-based; details: Homo sapiens; summary over HCT-116, HepG2, MCF-7; read-out: IC50 values across the tested cancer cell lines
Method: The cytotoxic activities of compounds 6a-l were assessed using a standard MTT method, which was performed across three different cancer cell line models, namely human colon cancer (HCT-116), hepatocellular carcinoma (HepG2), mammary gland cancer (MCF-7), and normal (WI-38) cell lines. […] […]. Substitution at the 4-position, as in the case of compounds 6d, 6g, and 6j, also seems beneficial, with fluoro (6j) showing the best results. […]. Overall, the cytotoxicity data provide valuable insights into the structure–activity relationships of the synthesized compounds and can guide further optimization efforts to develop potential anticancer agents with improved potency and selectivity.
. The SI values represent the ratio of the IC50 values for the normal WI-38 cell line compared with the respective cancer cell lines, with higher SI values indicating greater selectivity for the cancer cells over normal cells. […]. The cytotoxic potential of compounds 6a-l was evaluated against a panel of cancer cell lines, including HCT-116, HepG2, and MCF-7, as well as a normal cell line, WI-38, using the reported methodology. The cell lines utilized in this study were obtained from the American Type Culture Collection (ATCC) through the Holding Company for Biological Products and Vaccines (VACSERA) in Cairo, Egypt. These included: 1. A human colon cancer cell line (HCT-116); 2. Hepatocellular carcinoma (HepG2)—a liver cancer cell line; 3. Mammary gland breast cancer (MCF-7); and 4. A human lung fibroblast (WI-38)—a normal cell line.

[6] = biological target: VEGFR2 (Homo sapiens, UniProt P35968); experiment: In vitro protein kinase inhibition, VEGFR2; assay type: biochemical; details: mean ± SD of triplicate
Description: […]. […] […].

[7] = biological target: HDAC1 (Homo sapiens, UniProt Q13547); experiment: In vitro enzyme inhibition, HDAC1; assay type: biochemical; details: mean ± SD of triplicate; read-out: In Vitro Protein Kinase Inhibition IC50 HDAC1
[8] = biological target: mTOR (Homo sapiens, UniProt P42345); experiment: In vitro enzyme inhibition, mTOR
[9] = biological target: EGFR (Homo sapiens, UniProt P00533); experiment: In vitro protein kinase inhibition, EGFR
[10] = biological target: Her2 (Homo sapiens, UniProt P04626); experiment: In vitro protein kinase inhibition, Her2
[11] = biological target: CDK2 (Homo sapiens, UniProt P24941); experiment: In vitro protein kinase inhibition, CDK2
[12] = biological target: T1, AURKC (Homo sapiens, UniProt Q9UQB9); experiment: In vitro protein kinase inhibition, AURKC
T1 sequence (Q9UQB9 1-309): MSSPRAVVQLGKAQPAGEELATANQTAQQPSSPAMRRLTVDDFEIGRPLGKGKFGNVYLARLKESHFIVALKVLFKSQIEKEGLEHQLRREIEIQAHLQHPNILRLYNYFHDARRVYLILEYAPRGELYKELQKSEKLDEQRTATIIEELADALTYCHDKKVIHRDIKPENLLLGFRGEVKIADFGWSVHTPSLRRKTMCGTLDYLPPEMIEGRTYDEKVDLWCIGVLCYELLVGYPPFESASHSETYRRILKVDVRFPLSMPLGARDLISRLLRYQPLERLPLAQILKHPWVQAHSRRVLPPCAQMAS

[13] = tested on: caspase-3; experiment: Apoptotic protein level by ELISA, caspase-3; assay type: cell-based, human; details: HepG2 cells
Method: (§1) To further elucidate the mechanism by which compound 6i induces cell death, the expression levels of key apoptotic proteins were assessed in the HepG2 cell line. […] Specifically, the levels of the pro-apoptotic proteins caspase-3 and Bax were markedly higher in the compound 6i-treated group compared with the control. […] Additional studies are warranted to elucidate the detailed molecular mechanisms underlying the apoptosis-inducing effects of compound 6i and to assess its therapeutic potential in relevant in vivo models.
(§2) Apoptotic protein levels for compound 6i were determined using an ELISA technique for caspase-3, BAX, and Bcl-2, applying a previously reported method.

[14] = tested on: Bax; experiment: Apoptotic protein level by ELISA, Bax; assay type: cell-based, human; details: HepG2 cells
Method: as §1, §2

[15] = tested on: Bcl-2; experiment: Apoptotic protein level by ELISA, Bcl-2; assay type: cell-based, human; details: HepG2 cells, ELISA; control 15.668 ± 0.53; mean ± SD of triplicate

Sequence of HDAC1 (Q13547 whole entry): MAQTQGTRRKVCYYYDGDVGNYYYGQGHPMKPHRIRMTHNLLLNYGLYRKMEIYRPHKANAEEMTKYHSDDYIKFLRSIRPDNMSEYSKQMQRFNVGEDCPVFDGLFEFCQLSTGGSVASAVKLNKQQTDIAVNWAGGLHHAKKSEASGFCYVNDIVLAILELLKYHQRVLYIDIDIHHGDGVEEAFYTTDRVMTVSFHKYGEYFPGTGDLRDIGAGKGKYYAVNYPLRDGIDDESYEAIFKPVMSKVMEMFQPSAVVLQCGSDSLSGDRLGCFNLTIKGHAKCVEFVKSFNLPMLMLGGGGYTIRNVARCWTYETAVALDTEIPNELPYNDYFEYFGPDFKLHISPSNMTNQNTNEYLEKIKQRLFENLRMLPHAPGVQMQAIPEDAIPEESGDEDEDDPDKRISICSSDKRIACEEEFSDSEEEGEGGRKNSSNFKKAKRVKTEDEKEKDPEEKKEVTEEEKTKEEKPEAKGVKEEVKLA
Sequence of Her2 (P04626 23-1255): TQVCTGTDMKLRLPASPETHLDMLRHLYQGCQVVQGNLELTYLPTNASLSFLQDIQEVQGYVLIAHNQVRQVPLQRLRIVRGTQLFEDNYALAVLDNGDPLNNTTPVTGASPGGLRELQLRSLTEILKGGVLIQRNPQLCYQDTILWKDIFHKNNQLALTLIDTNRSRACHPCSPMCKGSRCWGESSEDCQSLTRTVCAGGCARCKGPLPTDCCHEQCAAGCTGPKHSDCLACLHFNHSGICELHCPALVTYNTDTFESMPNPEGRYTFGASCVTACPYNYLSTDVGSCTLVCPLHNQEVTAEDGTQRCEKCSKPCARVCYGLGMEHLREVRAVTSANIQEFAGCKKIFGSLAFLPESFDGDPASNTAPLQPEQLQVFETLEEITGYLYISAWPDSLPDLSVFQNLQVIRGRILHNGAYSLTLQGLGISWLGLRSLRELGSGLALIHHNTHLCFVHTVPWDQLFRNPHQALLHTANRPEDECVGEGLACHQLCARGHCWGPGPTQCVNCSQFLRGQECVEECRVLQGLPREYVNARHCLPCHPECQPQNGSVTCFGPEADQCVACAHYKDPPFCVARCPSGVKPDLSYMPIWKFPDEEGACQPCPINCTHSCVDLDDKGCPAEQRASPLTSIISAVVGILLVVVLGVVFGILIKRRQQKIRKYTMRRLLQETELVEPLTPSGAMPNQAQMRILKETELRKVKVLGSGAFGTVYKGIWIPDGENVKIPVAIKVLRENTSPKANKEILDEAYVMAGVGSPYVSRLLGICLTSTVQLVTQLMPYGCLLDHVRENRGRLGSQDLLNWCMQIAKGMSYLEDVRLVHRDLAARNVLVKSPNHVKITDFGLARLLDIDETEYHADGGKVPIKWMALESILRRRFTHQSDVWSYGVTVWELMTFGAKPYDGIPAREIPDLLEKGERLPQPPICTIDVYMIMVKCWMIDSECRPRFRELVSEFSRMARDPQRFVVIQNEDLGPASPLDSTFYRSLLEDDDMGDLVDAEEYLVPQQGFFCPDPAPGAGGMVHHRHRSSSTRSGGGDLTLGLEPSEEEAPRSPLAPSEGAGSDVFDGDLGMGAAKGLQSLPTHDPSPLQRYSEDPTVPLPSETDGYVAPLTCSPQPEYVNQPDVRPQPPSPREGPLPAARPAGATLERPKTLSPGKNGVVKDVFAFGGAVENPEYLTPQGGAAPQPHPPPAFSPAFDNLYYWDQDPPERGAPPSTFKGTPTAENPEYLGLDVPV
Sequence of VEGFR2 (P35968 20-1356): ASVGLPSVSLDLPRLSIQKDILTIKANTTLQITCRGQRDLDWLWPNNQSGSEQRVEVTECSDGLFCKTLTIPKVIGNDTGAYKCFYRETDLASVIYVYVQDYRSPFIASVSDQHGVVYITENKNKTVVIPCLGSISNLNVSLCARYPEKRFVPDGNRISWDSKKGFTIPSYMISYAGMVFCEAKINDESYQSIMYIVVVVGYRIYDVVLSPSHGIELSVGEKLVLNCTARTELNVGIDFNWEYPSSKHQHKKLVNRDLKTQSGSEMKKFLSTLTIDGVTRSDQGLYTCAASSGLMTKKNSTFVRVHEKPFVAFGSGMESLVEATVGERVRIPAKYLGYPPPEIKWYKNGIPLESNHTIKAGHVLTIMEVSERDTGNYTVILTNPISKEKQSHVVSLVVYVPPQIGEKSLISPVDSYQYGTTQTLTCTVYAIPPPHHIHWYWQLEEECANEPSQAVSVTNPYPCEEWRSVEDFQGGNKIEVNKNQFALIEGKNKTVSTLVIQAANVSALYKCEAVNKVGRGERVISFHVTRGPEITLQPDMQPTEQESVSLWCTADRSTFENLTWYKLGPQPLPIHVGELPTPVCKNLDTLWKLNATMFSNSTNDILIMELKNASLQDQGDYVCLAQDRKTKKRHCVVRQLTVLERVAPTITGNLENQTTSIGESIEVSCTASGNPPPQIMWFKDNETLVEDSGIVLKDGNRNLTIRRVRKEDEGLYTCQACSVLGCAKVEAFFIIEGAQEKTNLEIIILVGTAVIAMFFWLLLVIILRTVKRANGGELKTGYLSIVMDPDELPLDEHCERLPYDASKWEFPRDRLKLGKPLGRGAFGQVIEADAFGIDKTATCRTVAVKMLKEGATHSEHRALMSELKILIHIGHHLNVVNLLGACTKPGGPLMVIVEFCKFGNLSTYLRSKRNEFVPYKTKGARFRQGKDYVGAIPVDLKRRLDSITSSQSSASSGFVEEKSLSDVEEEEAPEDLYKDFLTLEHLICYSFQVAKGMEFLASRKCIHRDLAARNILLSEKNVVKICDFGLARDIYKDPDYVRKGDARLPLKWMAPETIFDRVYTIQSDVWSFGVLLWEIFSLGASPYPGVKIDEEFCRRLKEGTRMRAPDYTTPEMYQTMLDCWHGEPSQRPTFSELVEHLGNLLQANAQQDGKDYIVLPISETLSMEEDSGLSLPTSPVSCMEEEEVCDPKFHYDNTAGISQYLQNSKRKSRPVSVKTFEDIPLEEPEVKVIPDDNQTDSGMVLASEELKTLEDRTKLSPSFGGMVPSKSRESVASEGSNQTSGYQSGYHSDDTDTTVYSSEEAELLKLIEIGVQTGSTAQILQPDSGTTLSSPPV
Sequence of EGFR (P00533 25-1210): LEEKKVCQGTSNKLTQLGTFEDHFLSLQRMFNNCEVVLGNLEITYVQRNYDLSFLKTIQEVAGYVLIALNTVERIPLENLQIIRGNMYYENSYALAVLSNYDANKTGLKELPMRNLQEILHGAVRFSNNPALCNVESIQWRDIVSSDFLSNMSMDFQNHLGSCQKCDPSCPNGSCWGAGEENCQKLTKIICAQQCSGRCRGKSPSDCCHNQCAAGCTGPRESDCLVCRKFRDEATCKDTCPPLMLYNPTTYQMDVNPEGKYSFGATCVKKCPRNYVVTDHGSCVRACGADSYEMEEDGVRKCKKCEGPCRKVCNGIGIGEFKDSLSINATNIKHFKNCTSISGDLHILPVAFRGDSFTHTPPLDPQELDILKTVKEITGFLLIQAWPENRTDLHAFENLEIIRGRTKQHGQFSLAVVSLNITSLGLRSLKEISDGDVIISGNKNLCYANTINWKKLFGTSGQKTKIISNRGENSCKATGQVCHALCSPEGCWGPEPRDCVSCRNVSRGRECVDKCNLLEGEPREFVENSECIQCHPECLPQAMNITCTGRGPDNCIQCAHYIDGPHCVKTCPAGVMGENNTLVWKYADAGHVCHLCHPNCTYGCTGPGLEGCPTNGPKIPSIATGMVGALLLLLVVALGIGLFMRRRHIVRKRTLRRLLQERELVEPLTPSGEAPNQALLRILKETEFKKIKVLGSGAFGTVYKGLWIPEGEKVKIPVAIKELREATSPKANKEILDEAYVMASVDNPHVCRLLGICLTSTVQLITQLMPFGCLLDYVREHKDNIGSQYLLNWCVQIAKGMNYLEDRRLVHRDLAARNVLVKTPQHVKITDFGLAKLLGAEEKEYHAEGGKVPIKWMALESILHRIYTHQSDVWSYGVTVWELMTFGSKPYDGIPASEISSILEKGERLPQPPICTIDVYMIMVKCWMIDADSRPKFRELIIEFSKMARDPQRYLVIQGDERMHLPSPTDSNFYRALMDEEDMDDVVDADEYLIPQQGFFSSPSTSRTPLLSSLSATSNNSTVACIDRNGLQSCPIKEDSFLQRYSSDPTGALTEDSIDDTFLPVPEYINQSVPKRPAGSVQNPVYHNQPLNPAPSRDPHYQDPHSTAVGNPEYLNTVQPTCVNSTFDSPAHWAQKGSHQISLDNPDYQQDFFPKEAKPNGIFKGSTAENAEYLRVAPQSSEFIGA

Row | Compound | melting point [°C] | IC50 [1] [µM] | SI (Selectivity Index) HCT-116 [1] | IC50 [2] [µM] | SI (Selectivity Index) HepG2 [2] | IC50 [3] [µM] | SI (Selectivity Index) MCF-7 [3] | IC50 [4] [µM] | IC50 [5] [µM] | other results
1 | O=C(N/N=C/c1ccccc1Cl)c1ccc(NCc2nc3ccccc3[nH]2)cc1 [6e, (E)-4-(((1H-benzo[d]imidazol-2-yl)methyl)amino)-N′-(2-chlorobenzylidene)benzohydrazide] | 289 | 46.7 ± 2.7 | 1.33 | 28.8 ± 1.7 | 2.15 | 36.2 ± 2.3 | 1.71 | 61.9 ± 3.5 | > 20 | –
2 | O=C(N/N=C/c1cccc(Cl)c1)c1ccc(NCc2nc3ccccc3[nH]2)cc1 [6f, (E)-4-(((1H-benzo[d]imidazol-2-yl)methyl)amino)-N′-(3-chlorobenzylidene)benzohydrazide] | 271 | 63.7 ± 3.5 | – | 34.8 ± 2.1 | – | 45.6 ± 2.5 | – | > 100 | > 20 | –
3 | O=C(N/N=C/c1ccccc1Br)c1ccc(NCc2nc3ccccc3[nH]2)cc1 [6b, (E)-4-(((1H-benzo[d]imidazol-2-yl)methyl)amino)-N′-(2-bromobenzylidene)benzohydrazide] | 284 | 42.9 ± 2.5 | 1.96 | 26.2 ± 1.9 | 3.22 | 31.8 ± 2.1 | 2.64 | 84.2 ± 4.3 | > 20 | –
4 | O=C(N/N=C/c1ccccc1)c1ccc(NCc2nc3ccccc3[nH]2)cc1 [6a, (E)-4-(((1H-benzo[d]imidazol-2-yl)methyl)amino)-N′-benzylidenebenzohydrazide] | 278 | 24.6 ± 1.9 | 2.95 | 31.8 ± 2.2 | 2.29 | 26.3 ± 1.9 | 2.76 | 72.6 ± 4 | > 20 | –
5 | CCN(CC)CCNC(=O)c1c(C)[nH]c(/C=C2\C(=O)Nc3ccc(F)cc32)c1C [Sunitinib, reference compound] | – | 17.9 ± 1.3 | – | 8.38 ± 0.5 | – | 24.1 ± 2 | – | 55.6 ± 3.3 | – | –
6 | CN[C@@H]1C[C@H]2O[C@@](C)([C@@H]1OC)n1c3ccccc3c3c4c(c5c6ccccc6n2c5c31)C(=O)NC4 [Saurosporine, staurosporine, reference compound] | – | – | – | – | – | – | – | – | – | Protein Expression Caspase-3 ([13]; ELISA, control 99.904 ± 3.88, mean ± SD of triplicate): 541.162 ± 21.02 pg/mL; Protein Expression Caspase-3 (Folds) ([13]; relative to control (1)): 5.4 Folds; Protein Expression Bax ([14]; ELISA, control 71.075 ± 2.762, mean ± SD of triplicate): 386.743 ± 15.03 pg/mL; Protein Expression Bax (Folds) ([14]; relative to control (1)): 5.44 Folds; Protein Expression Bcl-2 [15]: 3.336 ± 0.11 pg/mL
7 | O=C(N/N=C/c1ccc(Br)cc1)c1ccc(NCc2nc3ccccc3[nH]2)cc1 [6d, (E)-4-(((1H-benzo[d]imidazol-2-yl)methyl)amino)-N′-(4-bromobenzylidene)benzohydrazide] | 287 | 30.3 ± 2.1 | 1.79 | 17.8 ± 1.3 | 3.05 | 25.2 ± 1.8 | 2.16 | 54.3 ± 3.1 | < 30 | –
8 | O=C(N/N=C/c1cccc(Br)c1)c1ccc(NCc2nc3ccccc3[nH]2)cc1 [6c, (E)-4-(((1H-benzo[d]imidazol-2-yl)methyl)amino)-N′-(3-bromobenzylidene)benzohydrazide] | 278 | 10.2 ± 0.8 | 4.72 | 8.9 ± 0.6 | 5.41 | 7.82 ± 0.6 | 6.16 | 48.2 ± 2.7 | 7.82 to 10.2 | IC50 [6]: 604.5 ± 0.022 nM; IC50 [7]: 2263 ± 0.077 nM; IC50 [8]: 1461 ± 0.05 nM; IC50 [9]: 125.2 ± 0.041 nM; IC50 [10]: 55.6 ± 0.023 nM; IC50 [11]: 938 ± 0.039 nM; IC50 [12]: 94.4 ± 0.036 nM

Second part, led by results:

Row | melting point [°C] | Compound | IC50 [1] [µM] | SI (Selectivity Index) HCT-116 [1] | IC50 [2] [µM] | SI (Selectivity Index) HepG2 [2] | IC50 [3] [µM] | SI (Selectivity Index) MCF-7 [3] | IC50 [4] [µM] | IC50 [5] [µM] | other results
9 | 290 | O=C(N/N=C/c1ccc(Cl)cc1)c1ccc(NCc2nc3ccccc3[nH]2)cc1 [6g, (E)-4-(((1H-benzo[d]imidazol-2-yl)methyl)amino)-N′-(4-chlorobenzylidene)benzohydrazide] | 35.3 ± 2.3 | 2.02 | 24.9 ± 1.7 | 2.86 | 22.5 ± 1.6 | 3.16 | 71.2 ± 3.5 | > 20 | –
10 | 160 | O=C(N/N=C/c1cc(F)ccc1F)c1ccc(NCc2nc3ccccc3[nH]2)cc1 [6l, (E)-4-(((1H-benzo[d]imidazol-2-yl)methyl)amino)-N′-(2,5-difluorobenzylidene)benzohydrazide] | 39.8 ± 2.2 | 1.95 | 20 ± 1.5 | 3.88 | 29.8 ± 2 | 2.60 | 77.6 ± 4.1 | > 20 | –
11 | 294 | O=C(N/N=C/c1ccc(Cl)cc1Cl)c1ccc(NCc2nc3ccccc3[nH]2)cc1 [6k, (E)-4-(((1H-benzo[d]imidazol-2-yl)methyl)amino)-N′-(2,4-dichlorobenzylidene)benzohydrazide] | 67.8 ± 3.8 | – | 44.8 ± 2.4 | – | 48.6 ± 2.7 | – | > 100 | > 20 | –
12 | 289 | O=C(N/N=C/c1ccccc1F)c1ccc(NCc2nc3ccccc3[nH]2)cc1 [6h, (E)-4-(((1H-benzo[d]imidazol-2-yl)methyl)amino)-N′-(2-fluorobenzylidene)benzohydrazide] | 21.5 ± 1.6 | 4.33 | 12.9 ± 1 | 7.19 | 16.3 ± 1.2 | 5.70 | 93 ± 4.6 | < 30 | IC50 [6]: 194.5 ± 0.007 nM; IC50 [7]: 151.1 ± 0.005 nM; IC50 [8]: 413 ± 0.014 nM; IC50 [9]: 73.2 ± 0.004 nM; IC50 [10]: 23.2 ± 0.001 nM; IC50 [11]: 284 ± 0.012 nM; IC50 [12]: 11 ± 0.004 nM
13 | 291 | O=C(N/N=C/c1ccc(F)cc1)c1ccc(NCc2nc3ccccc3[nH]2)cc1 [6j, (E)-4-(((1H-benzo[d]imidazol-2-yl)methyl)amino)-N′-(4-fluorobenzylidene)benzohydrazide] | 18.7 ± 1.4 | 2.08 | 14 ± 1.2 | 2.78 | 8.31 ± 0.7 | 4.70 | 39 ± 2.3 | < 30 | IC50 [6]: 307.2 ± 0.011 nM; IC50 [7]: 473.3 ± 0.016 nM; IC50 [8]: 1305 ± 0.044 nM; IC50 [9]: 166.4 ± 0.008 nM; IC50 [10]: 204.7 ± 0.009 nM; IC50 [11]: 1448 ± 0.062 nM; IC50 [12]: 589.4 ± 0.022 nM
